Data taken from PubChem BioAssay (NCI).
Several values for one entry are separate records, joined by “and”; a condition that tells them apart may be missing. Equal values may be shown once.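 Each compound was tested at five concentrations against cells in 96-well plates for 48 hours. GI50: concentration for 50% inhibition of growth. TGI marks complete inhibition of growth.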

Columns and labels:
Test in all cases: NCI tumour cell line growth inhibition, 48 h
[1] = test system: LXFL 529 NSCLC
[2] = test system: M19-MEL melanoma
[3] = test system: DMS 273 small cell lung
[4] = test system: SNB-78 CNS
[5] = test system: HOP-18 NSCLC
[6] = test system: DMS 114 small cell lung
[7] = test system: DLD-1 colon
[8] = test system: XF 498 CNS
[9] = test system: RXF-631 renal
[10] = test system: P388/ADR leukemia
[11] = test system: SN12K1 renal

SMILES | TGI [1] [µM] | TGI [2] | TGI [3] | TGI [4] [µM] | TGI [5] | TGI [6] | TGI [7] [µM] | GI50 [3] [µM] | GI50 [4] [µM] | GI50 [5] [µM] | GI50 [7] [µM] | TGI [8] [µM] | TGI [9] [µM] | GI50 [1] [nM] | GI50 [2] [µM] | GI50 [9] [µM] | GI50 [8] [µM] | GI50 [6] [µM] | TGI [10] [µM] | TGI [11] [µM]
CC(=O)O[C@]1(C)OC(=O)[C@@H](C)N1[N+](=O)[O-] | > 100 | > 100 µM | > 100 µM | > 100 | > 100 µM | > 100 µM | > 100 |  |  |  |  |  |  |  |  |  |  |  |  | 
CC/C(=C(/CC)c1ccc([O-])cc1)c1ccc([O-])cc1.CC/C(=C(\CC)c1ccc([O-])cc1)c1ccc([O-])cc1.O=C([CH-]C(=O)c1ccccc1)c1ccccc1.O=C([CH-]C(=O)c1ccccc1)c1ccccc1.O=C([CH-]C(=O)c1ccccc1)c1ccccc1.O=C([CH-]C(=O)c1ccccc1)c1ccccc1.[Ti+4].[Ti+4] |  |  | > 100 µM | > 100 | > 100 µM |  | 53.1 | 28.7 | 72.4 | 83.4 | 19.8 |  |  |  |  |  |  |  |  | 
O=C1OCCC1C(O)C1c2ccccc2-c2ccccc21 (stereo not given) | > 100 | > 100 µM |  | > 100 |  | > 100 µM | > 100 |  |  |  |  | > 100 |  |  |  |  |  |  |  | 
C[C@]12CCc3nonc3C1CC[C@@H]1C2CC[C@]2(C)NC(=O)CCC12 (stereo not given in full) | > 100 | > 100 µM | > 100 µM | > 100 | > 100 µM |  |  |  |  |  |  | > 100 | > 100 |  |  |  |  |  |  | 
C1C[S][Ge]2([S]CCO1)[S]CCOCC[S]2 | > 100 | > 100 µM | > 100 µM | > 100 |  | > 100 µM | > 100 | > 100 | > 100 |  | > 100 | > 100 | > 100 | > 100000 | > 100 | > 100 | > 100 | > 100 |  | 
O=C([O][Hg][CH2]C1COC([CH2][Hg][O]C(=O)c2ccccc2)CO1)c1ccccc1 (stereo not given) | 2.86 | 22.9 µM | 9.83 µM | 32.6 | 23.5 µM | 28.8 µM | 7.25 | 4.51 | 12.2 | 10.8 | 2.59 | 31.6 |  | 1530 | 9.67 |  | 17.7 | 15 |  | 
COc1ccc(C(=O)C(C(=O)C(=O)Nc2ccc(Cl)c(Cl)c2)c2ccc(OC)cc2)cc1 (stereo not given) | > 100 | > 100 µM | > 100 µM | > 100 | > 100 µM | > 100 µM | > 100 |  |  |  |  | > 100 |  |  |  |  |  |  |  | 
COc1c(NC(C)=O)cc(C)cc1NC(C)=O |  | > 100 µM | > 100 µM | > 100 |  | > 100 µM | > 100 |  |  |  |  | > 100 |  |  |  |  |  |  |  | 
Cc1c(C(=O)C/C(=N/NC(=O)C[n+]2ccccc2)C(=O)Nc2ccccc2)[n+](=O)c2ccccc2n1O | > 100 | > 100 µM | > 100 µM | > 100 | > 100 µM | > 100 µM | > 100 |  |  |  |  | > 100 | > 100 |  |  |  |  |  |  | 
CC(C)(C)CC(C)(C)c1cc2c(O)c(c1)Cc1cc(C(C)(C)CC(C)(C)C)cc(c1O)Cc1cc(C(C)(C)CC(C)(C)C)cc(c1O)Cc1cc(C(C)(C)CC(C)(C)C)cc(c1O)Cc1cc(C(C)(C)CC(C)(C)C)cc(c1O)Cc1cc(C(C)(C)CC(C)(C)C)cc(c1O)C2 | > 100 | > 100 µM | > 100 µM | > 100 |  | > 100 µM | > 100 |  |  |  |  | > 100 | > 100 |  |  |  |  |  |  | 
COc1ccc2c(c1)[n+]([O-])c(-c1ccccc1)c(N)[n+]2[O-] | 98.7 | > 100 µM | > 100 µM | > 100 | 97 µM | 79.2 µM | > 100 |  |  |  |  | 82.6 |  |  |  |  |  |  |  | 
COC(=O)C1=C(C(=O)OC)C23CC1C1C(C(=O)OC)=C(C(=O)OC)C12C1C=CC3C2C(=O)OC(=O)C21 (stereo not given) | > 100 | > 100 µM | > 100 µM | > 100 |  | 80.3 µM | > 100 |  |  |  |  | > 100 | > 100 |  |  |  |  |  |  | 
CN[C@@H](C)[C@@H](N)c1ccccc1 | > 100 |  | > 100 µM | > 100 | > 100 µM |  | > 100 |  |  |  |  |  | > 100 |  |  |  |  |  |  | 
O=P(NC12CC3CC(CC(C3)C1)C2)(N1CC1)N1CC1 | > 100 | > 100 µM | > 100 µM | > 100 | > 100 µM | > 100 µM | > 100 |  |  |  |  |  |  |  |  |  |  |  |  | 
O=C1N(c2ccccc2)C(=O)C2(SC=NN2Cc2ccccc2)N1c1ccccc1 (stereo not given) | > 100 | > 100 µM |  | > 100 | > 100 µM | > 100 µM | > 100 |  |  |  |  | > 100 |  |  |  |  |  |  |  | 
COc1ccc(N=Nc2c(-c3ccccc3)nn(C(=O)CC(=O)Nc3cccc(Cl)c3)c2-c2ccccc2)cc1 | > 100 | > 100 µM | > 100 µM |  | > 100 µM | > 100 µM | > 100 |  |  |  |  | > 100 |  |  |  |  |  |  |  | 
CC1(C)CCc2cc3c(cc2O1)OCC1c2cc4c(cc2OC31)OCO4 (stereo not given) | > 100 | > 100 µM |  |  | > 100 µM | > 100 µM | > 100 |  |  |  |  | > 100 | > 100 |  |  |  |  |  |  | 
CN(N=O)C(=O)N[C@@H](C=O)[C@@H](O)[C@H](O)[C@H](O)CO | > 750 | 629 µM and > 750 µM | 575 µM and > 750 µM | 608 | 216 µM and > 750 µM | 599 µM and > 750 µM | > 750 | > 750 |  | > 750 | > 750 | > 750 |  |  | 619 |  | > 750 | > 750 | 635 | 546
O=c1cccccc1NCCCCCCNc1cccccc1=O | > 100 | > 100 µM | > 100 µM | > 100 | > 100 µM | > 100 µM | > 100 |  |  |  |  |  | > 100 |  |  |  |  |  |  | 
